In ChEMBL document CHEMBL4680217, “Discovery of PROTAC BCL-X degraders as potent anticancer agents with low on-target platelet toxicity” (Eur J Med Chem, 2020):
Activity calls are given as the source filed them. The calls are words filed in the database; no cut-off is given here.

Assays:
MOLT-4 [1] = assay: Induction of apoptosis in human MOLT-4 cells assessed as necrotic cells at 100 nM measured after 48 hrs in presence of pan-caspase inhibitor QVD by Alexa Fluor 647-Annexin V/propidium iodide staining based flow cytometry (reference value: 0.3 to 0.4%); type: functional
MOLT-4 [2] = assay: Antiproliferative activity against human MOLT-4 cells assessed as reduction in cell viability measured after 48 hrs by MTS assay; type: functional, cell-based; details: MOLT-4, 48 h
MOLT-4 [3] = assay: Induction of apoptosis in human MOLT-4 cells assessed as necrotic cells at 10 nM measured after 48 hrs by Alexa Fluor 647-Annexin V/propidium iodide staining based flow cytometry (reference value: 0.3 to 0.4%); type: functional
NCI-H146 = assay: Antiproliferative activity against human NCI-H146 cells assessed as reduction in cell viability measured after 48 hrs by MTS assay; type: functional, cell-based; details: NCI-H146, 48 h
[4] = Toxicity in human platelet assessed as reduction in cell viability measured after 48 hrs by MTS assay; type: tissue-based; details: human platelets
[5] = Selectivity index, ratio of IC50 for human platelet to IC50 for human MOLT-4 cells
MOLT-4 [6] = assay: Induction of apoptosis in human MOLT-4 cells assessed as late apoptotic cells at 10 nM measured after 48 hrs by Alexa Fluor 647-Annexin V/propidium iodide staining based flow cytometry (reference value: 1.1 to 1.4%); type: functional
MOLT-4 [7] = assay: Induction of apoptosis in human MOLT-4 cells assessed as viable cells at 100 nM measured after 48 hrs in presence of pan-caspase inhibitor QVD by Alexa Fluor 647-Annexin V/propidium iodide staining based flow cytometry (reference value: 97.1 to 97.3%); type: functional; details: read-out: Activity
MOLT-4 [8] = assay: Induction of apoptosis in human MOLT-4 cells assessed as necrotic cells at 100 nM measured after 48 hrs by Alexa Fluor 647-Annexin V/propidium iodide staining based flow cytometry (reference value: 0.3 to 0.4%); type: functional
MOLT-4 [9] = assay: Induction of apoptosis in human MOLT-4 cells assessed as early apoptotic cells at 100 nM measured after 48 hrs by Alexa Fluor 647-Annexin V/propidium iodide staining based flow cytometry (reference value: 1.5 to 1.7%); type: functional
MOLT-4 [10] = assay: Induction of apoptosis in human MOLT-4 cells assessed as late apoptotic cells at 100 nM measured after 48 hrs by Alexa Fluor 647-Annexin V/propidium iodide staining based flow cytometry (reference value: 1.1 to 1.4%); type: functional
MOLT-4 [11] = assay: Induction of apoptosis in human MOLT-4 cells assessed as late apoptotic cells at 100 nM measured after 48 hrs in presence of pan-caspase inhibitor QVD by Alexa Fluor 647-Annexin V/propidium iodide staining based flow cytometry (reference value: 1.1 to 1.4%); type: functional
MOLT-4 [12] = assay: Induction of apoptosis in human MOLT-4 cells assessed as viable cells at 100 nM measured after 48 hrs by Alexa Fluor 647-Annexin V/propidium iodide staining based flow cytometry (reference value: 97.1 to 97.3%); type: functional; details: read-out: Activity
RS4-11 = assay: Antiproliferative activity against human RS4-11 cells assessed as reduction in cell viability measured after 48 hrs by MTS assay; type: functional, cell-based; details: RS4-11, 48 h
MOLT-4 [13] = assay: Induction of apoptosis in human MOLT-4 cells assessed as viable cells at 10 nM measured after 48 hrs by Alexa Fluor 647-Annexin V/propidium iodide staining based flow cytometry (reference value: 97.1 to 97.3%); type: functional; details: read-out: Activity
MOLT-4 [14] = assay: Induction of apoptosis in human MOLT-4 cells assessed as early apoptotic cells at 10 nM measured after 48 hrs by Alexa Fluor 647-Annexin V/propidium iodide staining based flow cytometry (reference value: 1.5 to 1.7%); type: functional
MOLT-4 [15] = assay: Induction of apoptosis in human MOLT-4 cells assessed as early apoptotic cells at 100 nM measured after 48 hrs in presence of pan-caspase inhibitor QVD by Alexa Fluor 647-Annexin V/propidium iodide staining based flow cytometry (reference value: 1.5 to 1.7%); type: functional
[16] = target: T1, Protein cereblon/Bcl-2-like protein 1 (Homo sapiens, UniProt Q07817+Q96SW2); assay: Protac activity at CRBN/BCL-XL in human MOLT-4 cells assessed as induction of BCL-XL degradation at 33 to 1000 nM measured after 16 hrs by immunoblotting analysis; type: cell-based; details: dose 33-1000 nM
Target sequence in this assay (Q07817 whole entry, looked up): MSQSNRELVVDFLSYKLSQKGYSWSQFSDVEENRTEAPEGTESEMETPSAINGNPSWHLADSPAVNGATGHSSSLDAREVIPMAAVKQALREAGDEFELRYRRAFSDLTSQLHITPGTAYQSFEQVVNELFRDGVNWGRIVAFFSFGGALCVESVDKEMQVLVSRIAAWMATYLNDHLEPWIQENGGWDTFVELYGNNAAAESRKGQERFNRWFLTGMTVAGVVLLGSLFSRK
Target sequence in this assay (Q96SW2 whole entry, looked up): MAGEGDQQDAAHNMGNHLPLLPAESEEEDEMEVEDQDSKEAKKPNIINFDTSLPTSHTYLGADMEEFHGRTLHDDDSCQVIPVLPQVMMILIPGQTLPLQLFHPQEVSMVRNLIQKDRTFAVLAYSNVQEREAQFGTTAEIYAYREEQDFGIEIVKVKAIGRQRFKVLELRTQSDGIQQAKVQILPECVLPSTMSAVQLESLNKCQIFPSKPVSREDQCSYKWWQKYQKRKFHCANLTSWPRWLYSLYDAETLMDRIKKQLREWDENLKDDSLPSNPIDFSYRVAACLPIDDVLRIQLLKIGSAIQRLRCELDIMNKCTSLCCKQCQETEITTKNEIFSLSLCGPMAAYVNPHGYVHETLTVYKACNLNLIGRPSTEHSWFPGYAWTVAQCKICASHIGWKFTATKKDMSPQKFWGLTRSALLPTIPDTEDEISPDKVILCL

MOLT-4 [17] = assay: Potency index, ratio of ABT-263 IC50 to test compound IC50 for antiproliferative activity against human MOLT-4 cells assessed as reduction in cell viability measured after 48 hrs by MTS assay; type: functional
[18] = target: T1, Protein cereblon/Bcl-2-like protein 1; assay: Protac activity at CRBN/BCL-XL in human MOLT-4 cells assessed as induction of BCL-XL degradation measured after 16 hrs by immunoblotting analysis; type: cell-based
Target sequence in this assay (Q07817 whole entry): as the sequence (Q07817 whole entry, looked up) above
Target sequence in this assay (Q96SW2 whole entry): as the sequence (Q96SW2 whole entry, looked up) above

[19] = target: Protein cereblon/Apoptosis regulator Bcl-2 (Homo sapiens) (UniProt P10415+Q96SW2); assay: Protac activity at CRBN/BCL2 in human MOLT-4 cells assessed as induction of BCL2 degradation at 50 nM measured after 16 hrs by immunoblotting analysis; type: cell-based
Chain of Protein cereblon/Apoptosis regulator Bcl-2 (Homo sapiens) (P10415 whole entry, looked up): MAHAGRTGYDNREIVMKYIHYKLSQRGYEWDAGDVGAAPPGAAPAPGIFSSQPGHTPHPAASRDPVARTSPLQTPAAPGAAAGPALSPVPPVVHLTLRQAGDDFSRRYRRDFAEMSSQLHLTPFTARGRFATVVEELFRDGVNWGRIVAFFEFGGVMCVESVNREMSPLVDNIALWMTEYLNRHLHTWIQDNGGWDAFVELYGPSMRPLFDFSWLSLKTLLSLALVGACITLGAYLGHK
Chain of Protein cereblon/Apoptosis regulator Bcl-2 (Homo sapiens) (Q96SW2 whole entry, looked up): as the sequence (Q96SW2 whole entry, looked up) above

[20] = target: T1, Protein cereblon/Bcl-2-like protein 1; assay: Protac activity at CRBN/BCL-XL in human MOLT-4 cells assessed as induction of BCL-XL degradation by measuring remaining BCL-XL level at 50 nM measured after 16 hrs by immunoblotting analysis relative to control; type: cell-based
Target sequence in this assay (Q07817 whole entry, looked up): as the sequence (Q07817 whole entry, looked up) above
Target sequence in this assay (Q96SW2 whole entry, looked up): as the sequence (Q96SW2 whole entry, looked up) above

[21] = target: T2, von Hippel-Lindau disease tumor suppressor/Bcl-2-like protein 1 (Homo sapiens, UniProt Q07817+P40337); assay: Protac activity at VHL/BCL-XL in human MOLT-4 cells assessed as induction of BCL-XL degradation measured after 16 hrs by immunoblotting analysis; type: cell-based
Target sequence in this assay (Q07817 whole entry): as the sequence (Q07817 whole entry, looked up) above
Target sequence in this assay (P40337 whole entry): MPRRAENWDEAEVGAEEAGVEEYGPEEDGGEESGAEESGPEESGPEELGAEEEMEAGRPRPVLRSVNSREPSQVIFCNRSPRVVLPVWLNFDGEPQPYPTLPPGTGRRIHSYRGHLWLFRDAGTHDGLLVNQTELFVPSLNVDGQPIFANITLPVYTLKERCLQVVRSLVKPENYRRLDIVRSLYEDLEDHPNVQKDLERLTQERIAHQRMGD

[22] = target: T2, von Hippel-Lindau disease tumor suppressor/Bcl-2-like protein 1; assay: Protac activity at VHL/BCL-XL in human MOLT-4 cells assessed as induction of BCL-XL degradation by measuring remaining BCL-XL level at 100 nM measured after 16 hrs by immunoblotting analysis relative to control; type: cell-based
Target sequence in this assay (P40337 whole entry, looked up): as the sequence (P40337 whole entry) above
Target sequence in this assay (Q07817 whole entry, looked up): as the sequence (Q07817 whole entry, looked up) above

[23] = target: von Hippel-Lindau disease tumor suppressor/Apoptosis regulator Bcl-2 (Homo sapiens) (UniProt P10415+P40337); assay: Protac activity at VHL/BCL2 in human MOLT-4 cells assessed as induction of BCL2 degradation at 100 nM measured after 16 hrs by immunoblotting analysis; type: cell-based
Chain of von Hippel-Lindau disease tumor suppressor/Apoptosis regulator Bcl-2 (Homo sapiens) (P10415 whole entry, looked up): as the sequence (P10415 whole entry, looked up) above
Chain of von Hippel-Lindau disease tumor suppressor/Apoptosis regulator Bcl-2 (Homo sapiens) (P40337 whole entry, looked up): as the sequence (P40337 whole entry) above

In the case of `CN(C)CC[C@H](CSc1ccccc1)Nc1ccc(S(=O)(=O)NC(=O)c2ccc(N3CCN(Cc4ccccc4-c4ccc(Cl)cc4)CC3)cc2)cc1[N+](=O)[O-]` [ABT 737], the Activity (MOLT-4 [1]) is reported as 5.4%, the IC50 (MOLT-4 [2]) is reported as 0.227 µM and the Activity (MOLT-4 [3]) is reported as 0.1%. The IC50 (NCI-H146) was 0.0438 µM, the IC50 at 48 h [4] was 0.242 µM and the “Ratio IC50” value [5] was 1.1. It also gave an Activity (MOLT-4 [6]) of 1.4%, a viability at 0.1 µM (MOLT-4 [7]) of 83.1% and an Activity (MOLT-4 [8]) of 0.4%. It also gave an Activity (MOLT-4 [9]) of 47.4%, an Activity (MOLT-4 [10]) of 11.6% and an Activity (MOLT-4 [11]) of 8.6%. The viability at 0.1 µM (MOLT-4 [12]) was 40.7%, the IC50 (RS4-11) was 0.049 µM and the viability at 0.01 µM (MOLT-4 [13]) was 96%. The Activity (MOLT-4 [14]) was 2.5% and the Activity (MOLT-4 [15]) was 2.6%.
For `CN(CCOCCOCCOCCNc1cccc2c1C(=O)N([C@@H]1CCC(=O)N(C)C1=O)C2=O)CC[C@H](CSc1ccccc1)Nc1ccc(S(=O)(=O)NC(=O)c2ccc(N3CCN(CC4=C(c5ccc(Cl)cc5)CCC(C)(C)C4)CC3)cc2)cc1S(=O)(=O)C(F)(F)F`, the Activity [16] was “inactive”.
In the case of `CC1(C)CCC(c2ccc(Cl)cc2)=C(CN2CCN(c3ccc(C(=O)NS(=O)(=O)c4ccc(N[C@H](CCN5CCN(CCOCCOCCOCCNc6cccc7c6C(=O)N([C@@H]6CCC(=O)NC6=O)C7=O)CC5)CSc5ccccc5)c(S(=O)(=O)C(F)(F)F)c4)cc3)CC2)C1`, the “Ratio IC50” value (MOLT-4 [17]) is reported as 12, the DC50 [18] is reported as 0.0045 µM and the IC50 (MOLT-4 [2]) is reported as 0.0173 µM. The IC50 (NCI-H146) was 0.0246 µM, the IC50 at 48 h [4] was 1.56 µM and the “Ratio IC50” value [5] was 90. The Activity [19] was “inactive”, the IC50 (RS4-11) was 0.0385 µM and the Activity [20] was 5%.
With `Cc1ncsc1-c1ccc([C@H](C)NC(=O)[C@@H]2C[C@@H](O)CN2C(=O)[C@@H](NC(=O)CCCCCN2CCN(CC[C@H](CSc3ccccc3)Nc3ccc(S(=O)(=O)NC(=O)c4ccc(N5CCN(CC6=C(c7ccc(Cl)cc7)CCC(C)(C)C6)CC5)cc4)cc3S(=O)(=O)C(F)(F)F)CC2)C(C)(C)C)cc1` the IC50 (MOLT-4 [2]) was 0.082 µM, the IC50 (NCI-H146) was 0.203 µM and the IC50 at 48 h [4] was > 10 µM. For the same compound, the “Ratio IC50” value [5] was >122, the DC50 [21] was 0.093 µM and the IC50 (RS4-11) was 0.076 µM. For the same compound, the Activity [22] was 43% and the Activity [23] was “inactive”.
`CN(CCCCCCCn1cc(COCCOCCNc2cccc3c2C(=O)N([C@@H]2CCC(=O)NC2=O)C3=O)nn1)CC[C@H](CSc1ccccc1)Nc1ccc(S(=O)(=O)NC(=O)c2ccc(N3CCN(CC4=C(c5ccc(Cl)cc5)CCC(C)(C)C4)CC3)cc2)cc1S(=O)(=O)C(F)(F)F` showed a DC50 [18] of 0.0063 µM, an IC50 (MOLT-4 [2]) of 0.0292 µM and an IC50 (NCI-H146) of 0.0617 µM. For the same compound, the IC50 at 48 h [4] was 6.25 µM, the “Ratio IC50” value [5] was 214 and the Activity [19] was “inactive”. It also gave an IC50 (RS4-11) of 0.0622 µM and an Activity [20] of 18%.
For `CN(CCCNc1cccc2c1C(=O)N([C@@H]1CCC(=O)NC1=O)C2=O)CC[C@H](CSc1ccccc1)Nc1ccc(S(=O)(=O)NC(=O)c2ccc(N3CCN(CC4=C(c5ccc(Cl)cc5)CCC(C)(C)C4)CC3)cc2)cc1S(=O)(=O)C(F)(F)F`, the DC50 [18] was 0.0106 µM, the IC50 (MOLT-4 [2]) was 0.0325 µM and the IC50 (NCI-H146) was 0.0702 µM. The IC50 at 48 h [4] was 3.3 µM, the “Ratio IC50” value [5] was 101 and the Activity [19] was “inactive”. For the same compound, the IC50 (RS4-11) was 0.129 µM and the Activity [20] was 31%.
With `Cc1ncsc1-c1ccc([C@H](C)NC(=O)[C@@H]2C[C@@H](O)CN2C(=O)[C@@H](NC(=O)CCCCCCN(C)CC[C@H](CSc2ccccc2)Nc2ccc(S(=O)(=O)NC(=O)c3ccc(N4CCN(CC5=C(c6ccc(Cl)cc6)CCC(C)(C)C5)CC4)cc3)cc2S(=O)(=O)C(F)(F)F)C(C)(C)C)cc1` the IC50 (MOLT-4 [2]) was 0.0813 µM, the IC50 (NCI-H146) was 0.265 µM and the IC50 at 48 h [4] was > 10 µM. For the same compound, the “Ratio IC50” value [5] was >123, the DC50 [21] was 0.071 µM and the IC50 (RS4-11) was 0.189 µM. For the same compound, the Activity [22] was 28% and the Activity [23] was “inactive”.
For `Cc1ncsc1-c1ccc([C@H](C)NC(=O)[C@@H]2C[C@@H](O)CN2C(=O)[C@@H](NC(=O)CCCCCC(=O)N2CCN(CC[C@H](CSc3ccccc3)Nc3ccc(S(=O)(=O)NC(=O)c4ccc(N5CCN(CC6=C(c7ccc(Cl)cc7)CCC(C)(C)C6)CC5)cc4)cc3S(=O)(=O)C(F)(F)F)CC2)C(C)(C)C)cc1` [DT-2216], the IC50 (MOLT-4 [2]) was 0.0771 µM, the IC50 (NCI-H146) was 0.278 µM and the IC50 at 48 h [4] was > 10 µM. For the same compound, the “Ratio IC50” value [5] was >130, the DC50 [21] was 0.053 µM and the IC50 (RS4-11) was 0.213 µM. The Activity [22] was 14% and the Activity [23] was “inactive”.
For `O=C1CCC(N2C(=O)c3cccc(NCCOCCOCc4cn(CCCC(=O)N5CCN(CC#Cc6ccc(OCCCc7sc(N8CCc9cccc(C(=O)Nc%10nc%11ccccc%11s%10)c9C8)nc7C(=O)O)c(F)c6)CC5)nn4)c3C2=O)C(=O)N1` (configuration not stated), the DC50 [18] was 0.05 µM.
With `Cc1ncsc1-c1ccc([C@H](C)NC(=O)[C@@H]2C[C@@H](O)CN2C(=O)[C@@H](NC(=O)CCCCCC(=O)N(C)CC[C@H](CSc2ccccc2)Nc2ccc(S(=O)(=O)NC(=O)c3ccc(N4CCN(CC5=C(c6ccc(Cl)cc6)CCC(C)(C)C5)CC4)cc3)cc2S(=O)(=O)C(F)(F)F)C(C)(C)C)cc1` the IC50 (MOLT-4 [2]) was > 2 µM, the Activity [22] was 78% and the Activity [23] was “inactive”.
For `Cc1ncsc1-c1ccc([C@H](C)NC(=O)[C@@H]2C[C@@H](O)CN2C(=O)[C@@H](NC(=O)CCCCCCCCCN(C)CC[C@H](CSc2ccccc2)Nc2ccc(S(=O)(=O)NC(=O)c3ccc(N4CCN(CC5=C(c6ccc(Cl)cc6)CCC(C)(C)C5)CC4)cc3)cc2S(=O)(=O)C(F)(F)F)C(C)(C)C)cc1`, the IC50 (MOLT-4 [2]) was 1.06 µM, the Activity [22] was 62% and the Activity [23] was “inactive”.
For `Cc1ncsc1-c1ccc([C@H](C)NC(=O)[C@@H]2C[C@@H](O)CN2C(=O)[C@@H](NC(=O)CCC(=O)N2CCN(CC[C@H](CSc3ccccc3)Nc3ccc(S(=O)(=O)NC(=O)c4ccc(N5CCN(CC6=C(c7ccc(Cl)cc7)CCC(C)(C)C6)CC5)cc4)cc3S(=O)(=O)C(F)(F)F)CC2)C(C)(C)C)cc1`, the IC50 (MOLT-4 [2]) was > 2 µM, the Activity [22] was 92% and the Activity [23] was “inactive”.
